Structures are written as SMILES. Calls of active or inactive are those of the source. No cut-off for these calls is given here.

We go through ten compounds from ChEMBL document CHEMBL5390220, “SAR study of niclosamide derivatives for neuroprotective function in SH-SY5Y neuroblastoma” (Bioorg Med Chem Lett, 2023).

What all share (type): functional, cell-based
In assay [1] the test system is SH-SY5Y. Kind of assay: Neuroprotective activity against human SH-SY5Y cells assessed as inhibition of p53 expression incubated for 24 hrs in presence of MG132 by Western blot analysis. (Immunoblotting shows a protein as a band on a membrane.)
Assay [2] has as its system SH-SY5Y. Kind of assay: Neuroprotective activity against human SH-SY5Y cells assessed as reduction in cyclin D expression incubated for 24 hrs in presence of MG132 by Western blot analysis.
Assay [3] concerns SH-SY5Y. The assay can be described thus: Neuroprotective activity against human SH-SY5Y cells assessed as inhibition of CHOP expression incubated for 24 hrs in presence of MG132 by Western blot analysis.
The subject of assay [4] is SH-SY5Y. Kind of assay: Neuroprotective activity against human SH-SY5Y cells assessed as reduction in protein ubiquitination level incubated for 24 hrs in presence of MG132 by Western blot analysis.
The test system of assay [5] is SH-SY5Y. The assay can be described thus: Neuroprotective activity against human SH-SY5Y cells assessed as reduction in cleaved PARP level incubated for 24 hrs in presence of MG132 by Western blot analysis.

In the case of `CC(=O)Oc1ccc(Cl)cc1C(=O)Nc1ccc([N+](=O)[O-])cc1Cl`, the inhibition entry in the assay with SH-SY5Y [1] and in the assay with SH-SY5Y [3] was “Active” each time. Further, the result in the assay on SH-SY5Y [2] and with SH-SY5Y [4] was Active.
Turning to `CC(=O)Nc1ccc(NC(=O)c2cc(Cl)ccc2OC(C)=O)c(Cl)c1`, the inhibition result in the assay with SH-SY5Y [1] and in the assay with SH-SY5Y [3] was “inactive” throughout. The result in the assay with SH-SY5Y [5], in the assay with SH-SY5Y [2] and with SH-SY5Y [4] was inactive.
Turning to `O=C(Nc1ccc(C(F)(F)F)cc1Cl)c1cc(Cl)ccc1O`, the inhibition entry in the assay on SH-SY5Y [1] and in the assay on SH-SY5Y [3] was “Active” in each case. The result in the assay on SH-SY5Y [5], in the assay with SH-SY5Y [2] and in the assay on SH-SY5Y [4] was Active.
Take `O=C(Nc1ccccc1)c1cc(Cl)ccc1O`: the inhibition result in the assay on SH-SY5Y [1] is “inactive”.
As for `O=C(Nc1ccc([N+](=O)[O-])cc1)c1cc(Cl)ccc1O`, the inhibition entry in the assay with SH-SY5Y [1] and in the assay on SH-SY5Y [3] was “Active” in each case. In addition, the outcome with SH-SY5Y [5], in the assay on SH-SY5Y [2] and in the assay with SH-SY5Y [4] was Active.
As to `O=C(Nc1ccc([N+](=O)[O-])cc1Cl)c1ccccc1`, the result in the assay with SH-SY5Y [4] was inactive.
On to `O=C(Nc1ccc([N+](=O)[O-])cc1Cl)c1cc(Cl)ccc1O`, for which the inhibition result in the assay on SH-SY5Y [1] and in the assay with SH-SY5Y [3] was “Active” each time. Further, the result with SH-SY5Y [5] and in the assay with SH-SY5Y [4] was Active.
Turning to `[N-]=[N+]=Nc1ccc(NC(=O)c2cc(Cl)ccc2O)c(Cl)c1`, the inhibition entry with SH-SY5Y [1] and with SH-SY5Y [3] was “Active” throughout. Moreover, the outcome in the assay with SH-SY5Y [5], in the assay with SH-SY5Y [2] and with SH-SY5Y [4] was Active.
Turning to `O=C(Nc1ccc([N+](=O)[O-])cc1Cl)c1ccccc1O`, the inhibition result in the assay on SH-SY5Y [1] and in the assay on SH-SY5Y [3] was “Active” each time. Further, in the assay with SH-SY5Y [2], the result was Active.
Turning to `Nc1ccc(NC(=O)c2ccccc2O)cc1`, the inhibition entry in the assay with SH-SY5Y [1] is “inactive”.
